Where a name gives a salt, the structure may show the parent alone.
How the values were obtained:
[1] = test system: herpes simplex 1 virus (HSV1); assay: Plaque Assay 1 (plaque counting); assay type: cell-based; conditions: for plaques seen in plaque assay: concentration and dilution not stated
Experimental: The compounds prepared in Examples 1-4 were tested in a plaque assay using herpes simplex 1 virus (HSV1), and acyclovir (ACV) as a reference compound. […] The plaque counting results obtained when using the compounds of Examples 1 and 4, and the reference compound ACV, respectively, are shown in Tables 1-3.

[2] = test system: HSV-1; conditions: in vitro; cited from earlier work

SMILES | plaque count ([1]; compound 1 uM, 10^1 dilution) | plaque count ([1]; compound 5 uM, 10^1 dilution) | plaque count ([1]; compound 5 uM, 10^2 dilution) | plaques seen in plaque assay [1] | further results
Br.C=CC[N+](C)(C)CCn1c2ccccc2c2nc3cc(C)c(C)cc3nc21 |  |  |  |  | melting point: 248 to 252 °C
Nc1nc2c(ncn2COCCO)c(=O)[nH]1 [ACV, acyclovir, reference compound] | 15 | 8 | 1 |  | plaque count ([1]; compound 25 uM, 10^1 dilution): 2; selectivity ratio for the inhibitory activity against HSV-1 [2]: about 2000
Cc1cc2nc3c4ccccc4n(CC[N+](C)(C)C)c3nc2cc1C.[I-] [Example 1, 2,3-Dimethyl-6-[2-(trimethylamino)ethyl]-6H-indolo[2,3-b]quinoxaline iodide] | 19 | 8 | 2 |  | plaque count ([1]; compound 1 uM, 10^2 dilution): 3; plaque count ([1]; compound 1 uM, 10^3 dilution): 1
Cc1cc2nc3c4cc(Cl)ccc4n(CC(=O)NCCN(C)C)c3nc2cc1C [Example 2, 9-chloro-N-[2-(dimethylamino)ethyl]-2,3-dimethyl-6H-Indolo[2,3-b]quinoxaline-6-acetamide] |  |  |  | no plaques could be seen | 
Cc1cc2nc3c4cc(Cl)ccc4n(CC(=S)NCCN(C)C)c3nc2cc1C [Example 3, 9-chloro-N-[2-(dimethylamino)ethyl]-2,3-dimethyl-6H-Indolo[2,3-b]quinoxaline-6-thioacetamide] |  |  |  | no plaques could be seen | 
Cc1cc2nc3c4ccccc4n(CC[N+](C)(C)C)c3nc2cc1C [Example 4, 2,3-dimethyl-6-[2-(trimethylamino)ethyl]-6H-indolo[2,3-b]quinoxaline methyl sulfate] | 11 | 2 |  |  | 

Reference: patent publication US20160031889A1, “ANTIVIRAL INDOLO[2,3-B]QUINOXALINE” (VIRONOVA HERPES AB, priority 2013, published 2016)
